# Data as given in ChEMBL document CHEMBL1201862, “PubChem BioAssay data set” (2004).
# Active and inactive are the calls of the source.
# Assays:
# [1] = microbe, parasite or virus in culture; assay type: functional; conditions: Mycobacterium tuberculosis
# [2] = biological target: T1, Replicative DNA helicase DnaB (Mycobacterium tuberculosis, UniProt P9WMR3); test: DnaB intein splicing inhibitors, dose response, biochemical, cell-free fluorescence (AID 449749); assay type: functional
# T1 sequence (P9WMR3 whole entry): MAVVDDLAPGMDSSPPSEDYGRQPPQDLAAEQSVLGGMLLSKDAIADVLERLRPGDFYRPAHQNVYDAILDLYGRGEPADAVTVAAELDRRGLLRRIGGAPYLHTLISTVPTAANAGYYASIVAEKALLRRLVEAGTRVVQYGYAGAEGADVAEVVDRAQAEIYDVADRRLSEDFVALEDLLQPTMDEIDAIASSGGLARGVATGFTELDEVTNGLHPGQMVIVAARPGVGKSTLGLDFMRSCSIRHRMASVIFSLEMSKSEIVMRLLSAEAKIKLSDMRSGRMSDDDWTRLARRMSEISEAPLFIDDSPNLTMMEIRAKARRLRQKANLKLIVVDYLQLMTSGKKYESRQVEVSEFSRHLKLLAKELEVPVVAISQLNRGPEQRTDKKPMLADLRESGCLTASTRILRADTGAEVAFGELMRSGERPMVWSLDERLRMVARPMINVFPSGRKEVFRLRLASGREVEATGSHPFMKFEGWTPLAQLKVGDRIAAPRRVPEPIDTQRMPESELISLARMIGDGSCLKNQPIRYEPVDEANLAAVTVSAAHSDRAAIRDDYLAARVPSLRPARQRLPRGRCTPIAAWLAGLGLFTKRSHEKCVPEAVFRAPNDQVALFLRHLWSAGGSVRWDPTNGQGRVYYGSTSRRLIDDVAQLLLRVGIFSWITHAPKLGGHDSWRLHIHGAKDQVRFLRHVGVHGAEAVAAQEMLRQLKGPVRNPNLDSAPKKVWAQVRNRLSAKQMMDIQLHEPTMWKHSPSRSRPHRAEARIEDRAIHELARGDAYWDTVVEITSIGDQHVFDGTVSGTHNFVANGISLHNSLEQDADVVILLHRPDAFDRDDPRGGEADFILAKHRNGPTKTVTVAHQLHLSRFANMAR
# Protein RecA = biological target: T2, Protein RecA (Mycobacterium tuberculosis, UniProt P9WHJ3); test: Fluorescence Cell-Free Homogeneous Dose Retest to Identify Inhibitors of RecA-Intein Splicing Activity. [Related pubchem assays (depositor defined):AID2097, AID2223, AID489010, AID492950]; assay type: functional
# T2 sequence (P9WHJ3 whole entry): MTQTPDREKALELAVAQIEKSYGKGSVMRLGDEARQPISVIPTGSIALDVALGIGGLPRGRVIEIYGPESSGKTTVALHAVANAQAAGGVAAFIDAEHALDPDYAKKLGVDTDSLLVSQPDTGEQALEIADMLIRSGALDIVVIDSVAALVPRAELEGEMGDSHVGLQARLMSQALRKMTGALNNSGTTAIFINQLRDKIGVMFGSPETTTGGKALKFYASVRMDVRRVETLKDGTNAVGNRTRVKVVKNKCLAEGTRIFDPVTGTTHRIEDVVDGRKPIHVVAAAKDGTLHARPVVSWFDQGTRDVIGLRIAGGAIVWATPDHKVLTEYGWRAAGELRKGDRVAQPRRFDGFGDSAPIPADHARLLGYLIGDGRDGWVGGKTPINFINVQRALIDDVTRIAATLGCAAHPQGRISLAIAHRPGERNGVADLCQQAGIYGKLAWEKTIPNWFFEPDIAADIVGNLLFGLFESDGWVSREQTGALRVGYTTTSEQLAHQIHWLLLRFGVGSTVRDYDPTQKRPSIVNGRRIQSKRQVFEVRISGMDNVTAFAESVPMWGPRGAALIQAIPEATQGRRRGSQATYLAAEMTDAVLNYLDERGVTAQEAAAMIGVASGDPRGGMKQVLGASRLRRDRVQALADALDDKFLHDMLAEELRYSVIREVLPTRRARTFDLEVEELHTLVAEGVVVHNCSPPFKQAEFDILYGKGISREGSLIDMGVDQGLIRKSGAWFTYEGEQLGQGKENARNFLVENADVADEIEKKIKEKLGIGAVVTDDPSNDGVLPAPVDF
# [3] = biological target: Glucose-6-phosphate 1-dehydrogenase (Homo sapiens, UniProt P11413); test: inhibition of Homo sapiens G6PD, dose series – biochemical, fluorescence, selectivity assay for P. falciparum G6PD inhibitor project, dose response (AID 504792); assay type: functional
# Glucose-6-phosphate 1-dehydrogenase, sequence (P11413 whole entry): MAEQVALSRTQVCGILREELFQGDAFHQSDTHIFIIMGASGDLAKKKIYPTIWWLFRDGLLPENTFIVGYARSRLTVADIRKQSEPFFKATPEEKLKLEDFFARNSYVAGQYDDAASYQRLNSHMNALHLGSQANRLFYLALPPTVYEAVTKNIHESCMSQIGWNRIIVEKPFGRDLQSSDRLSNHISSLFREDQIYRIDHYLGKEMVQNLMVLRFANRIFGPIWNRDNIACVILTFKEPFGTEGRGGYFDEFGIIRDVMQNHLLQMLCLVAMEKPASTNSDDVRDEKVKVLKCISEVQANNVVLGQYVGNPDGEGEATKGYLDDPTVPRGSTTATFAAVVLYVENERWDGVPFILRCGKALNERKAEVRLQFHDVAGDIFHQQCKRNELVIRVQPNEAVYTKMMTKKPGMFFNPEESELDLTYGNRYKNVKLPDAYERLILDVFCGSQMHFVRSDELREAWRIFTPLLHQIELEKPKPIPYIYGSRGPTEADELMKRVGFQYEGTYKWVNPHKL
# [4] = viability of HCT116 lacking mutant beta-catenin – cell-based, human colon tumor, dose response (AID 1045); assay type: functional;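 further: HCT116 colon tumor cells with beta catenin knocked out; cells exposed to compound for 60 hours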
# [5] = viability of PTEN-deleted HCT116 cells – cell-based, HCT116 PTEN knockout, dose response (AID 1047); assay type: functional;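 further: HCT116 colon tumor cells with PTEN knocked out; cells exposed to compound for 60 hours before readout; potency for loss of cell viability measured by luminescence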
# [6] = Luminescence Cell-Based Dose Response HTS to Identify Activators of Luciferase Translation or Activity in H4 […] Cells. [Related pubchem assays: 1829 (Project Summary), 1814 (Primary HTS)]; assay type: functional
# [7] = Luminescence Cell-Based Dose Confirmation HTS to Identify Activators of 5'UTR Stem-Loop Driven Alpha-Synuclein mRNA Translation in H4 Neuroglioblastoma Cells. [Related pubchem assays: 1829 (Project Summary), 1814 (Primary HTS)]; assay type: functional
# H4 = test: Luminescence Cell-Based Dose Response HTS to Identify Activators of 5'UTR Stem-Loop Driven Prion Protein mRNA Translation in H4 Neuroglioblastoma Cells. [Related pubchem assays: 1829 (Project Summary), 1814 (Primary HTS)]; assay type: functional; conditions: Homo sapiens
# [8] = Trypanosoma cruzi growth suppression in host cells – NIH3T3 host cells, beta-gal luminescence, confirmation (AID 2044); assay type: functional, cell-based;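 further: intracellular parasites grown in NIH/3T3 mouse fibroblasts as host cells; luminescent beta-galactosidase reporter signal from transgenic T. cruzi replicating inside host cells; inhibitors lower the luminescence signal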
# [9] = NIH3T3 cell viability loss – ATP luminescence, mouse fibroblasts, counter-screen, dose response (AID 2010); assay type: functional, cell-based;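 further: cells exposed to compound for about 90 hours before reading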
# [10] = THP-1 cell cytotoxicity, dose response, cytotoxicity control for non-replicating M. tuberculosis project (AID 489025); assay type: functional
# [11] = Luminescence Cell-Based Dose Retest to Confirm Inhibitors of Cancer Stem Cells. [Related pubchem assays (depositor defined):AID2717, AID2721]; assay type: functional; conditions: Homo sapiens
# [12] = P. falciparum Dd2 growth inhibitors, dose response, SYBR Green, cherry-picked samples (AID 1159567); assay type: functional, cell-based
# Cytochrome P450 2D6 = Cytochrome P450 2D6 (Homo sapiens, UniProt P10635);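 further: CYP2D6 member of a cytochrome P450 panel assay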
# Cytochrome P450 2D6, sequence (P10635 whole entry): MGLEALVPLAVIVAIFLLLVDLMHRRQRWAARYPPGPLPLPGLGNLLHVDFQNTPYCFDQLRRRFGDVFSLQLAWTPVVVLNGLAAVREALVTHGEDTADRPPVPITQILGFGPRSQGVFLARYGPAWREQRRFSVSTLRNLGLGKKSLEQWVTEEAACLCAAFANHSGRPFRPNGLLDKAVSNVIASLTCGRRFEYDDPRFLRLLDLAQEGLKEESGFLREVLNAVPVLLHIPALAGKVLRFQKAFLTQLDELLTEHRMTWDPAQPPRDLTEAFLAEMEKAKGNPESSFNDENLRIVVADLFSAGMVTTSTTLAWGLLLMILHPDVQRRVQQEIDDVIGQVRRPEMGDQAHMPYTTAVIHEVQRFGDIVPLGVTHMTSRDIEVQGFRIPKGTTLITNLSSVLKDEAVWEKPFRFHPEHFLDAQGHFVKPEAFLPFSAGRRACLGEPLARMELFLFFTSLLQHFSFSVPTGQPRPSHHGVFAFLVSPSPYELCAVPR
# Cytochrome P450 3A4 = Cytochrome P450 3A4 (Homo sapiens, UniProt P08684);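 further: CYP3A4 tested as one member of a cytochrome P450 panel screen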
# Cytochrome P450 3A4, sequence (P08684 whole entry): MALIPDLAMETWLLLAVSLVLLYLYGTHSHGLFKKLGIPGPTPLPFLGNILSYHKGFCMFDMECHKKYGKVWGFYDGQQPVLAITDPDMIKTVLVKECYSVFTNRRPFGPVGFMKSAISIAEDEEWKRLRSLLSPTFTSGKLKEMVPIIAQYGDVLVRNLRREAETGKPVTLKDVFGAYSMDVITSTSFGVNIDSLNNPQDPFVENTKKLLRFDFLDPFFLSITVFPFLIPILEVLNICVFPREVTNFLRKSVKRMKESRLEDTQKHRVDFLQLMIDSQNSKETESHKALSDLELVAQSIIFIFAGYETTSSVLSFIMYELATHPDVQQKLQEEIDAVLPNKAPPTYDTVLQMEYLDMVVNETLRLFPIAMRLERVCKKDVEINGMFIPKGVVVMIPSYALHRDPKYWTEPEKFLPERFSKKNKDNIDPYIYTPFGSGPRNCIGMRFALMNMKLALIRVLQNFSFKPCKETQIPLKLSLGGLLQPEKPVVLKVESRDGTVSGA
# [13] = viability loss in THP-1 monocytes – THP-1 cells, cytotoxicity control for Vif-APOBEC3G degradation inhibitor project, dose response (AID 1117359); assay type: functional; conditions: THP-1
# [14] = HIV-1 AD8 envelope cell-cell fusion blockers – cherry-pick, dose response (AID 652062); assay type: functional, cell-based;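 further: luciferase signal from cell-cell fusion driven by HIV-1 clade B AD8 Env; potency is for inhibitors of fusion seen as a drop in luminescence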
# [15] = blockers of HIV-1 ZM109 envelope-driven cell-cell fusion – HeLa effector, CEM target cells, luciferase, cherry-pick, dose response (AID 652058); assay type: functional, cell-based;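 further: luciferase signal from HIV-1 Env mediated cell-cell fusion of effector and target cells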
# [16] = blockers of HIV-1 envelope-mediated cell-cell fusion – cherry-pick, dose response (AID 652057); assay type: functional, cell-based
# [17] = off-target signal loss in HeLa-CEM21 co-culture – HeLa F-luc CTL cells, cherry-picked, counter-screen for HIV-1 Env fusion inhibitor project, dose response (AID 652040); assay type: functional, cell-based;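 further: potency for signal decrease marking cytotoxic or nonspecific inhibition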
# cells = assay type: functional
compound,measurement,setting,value
O=C(NCCc1ccc(Cl)cc1)c1ccc(C[S+]([O-])Cc2ccc(Cl)cc2)o1 (stereo not drawn),CC50,[1],> 40 µM (active)
CCOc1ccccc1CNc1ccc(O)cc1,AC50,[2],> 380 µM (inactive)
same,EC50,Protein RecA,14 µM (active)
same,IC50,[3],> 80 µM (inactive)
CN1CCN(c2cc(-c3ccccc3)nc3cc(-c4ccc(F)cc4)nn23)CC1,EC50,[4],9.14 µM (active)
same,EC50,[5],10.6 µM (active)
same,CC50,[1],11.7 µM (active)
C/C(Cn1nnc([N+](=O)[O-])n1)=N\NC(=O)c1ccccc1,EC50,[6],> 120 µM (not active)
same,EC50,[7],> 120 µM (not active)
same,EC50,H4,> 120 µM (not active)
same,IC50,[3],> 80 µM (inactive)
CCCCCOc1ccc(CSC2=NCCN2)cc1[N+](=O)[O-],EC50,[6],> 120 µM (not active)
same,EC50,[7],14.1 µM (active)
same,EC50,[8],534 nM (active)
same,EC50,H4,22.2 µM (active)
same,EC50,[9],> 60 µM (not active)
same,CC50,[10],> 40 µM (active)
Cc1ccc(-c2cc(-c3ccccc3C)[nH]n2)c(O)c1,CC50,[1],> 40 µM (active)
same,AC50,[11],7.98 µM (active)
Cc1cc(C)nc(SC2CC(=O)N(c3ccc(C)c(C)c3)C2=O)n1 (stereo not drawn),CC50,[10],> 40 µM (active)
COc1cccc(NC(=O)N2CC(=O)N3[C@H](CO)[C@@H](c4ccc(C#CCC5CCCC5)cc4)[C@H]3C2)c1,AC50,[12],8.6 µM (active)
NCCc1c[nH]c2ccccc12 [TRYPTAMINE],AC50,Cytochrome P450 2D6,31.6 µM (inconclusive)
same,AC50,Cytochrome P450 3A4,inconclusive
same,CC50,[13],> 40 µM (active)
CC(=O)C1=C(C)N(Cc2ccc(Cl)cc2)C(=S)NC1c1cccc(Br)c1 (stereo not drawn),AC50,[14],22.6 µM (active)
same,AC50,[15],4.16 µM (active)
same,AC50,[16],5.96 µM (active)
same,AC50,[17],15.9 µM (active)
CC[C@]1(C(=O)OC)[C@H]2C(=O)N(Cc3ccccc3)C(=O)[C@H]2[C@H]2CN=C(SCC3CC3)N21,AC50,[14],5.46 µM (active)
same,AC50,[15],1.45 µM (active)
same,AC50,[16],1.12 µM (active)
same,AC50,[17],2.66 µM (active)
CCC(=O)N1CCC2(CC1)CN(Cc1cccc(Cl)c1)[C@H](CO)c1c2c2ccc(OC)cc2n1C,AC50,[12],4.8 µM (active)
COc1ccc(NC(=O)c2cnc(SC)nc2)cc1,EC50,[6],14.8 µM (active)
same,EC50,[7],> 120 µM (not active)
same,EC50,H4,16 µM (active)
same,CC50,[10],18.1 µM (active)
same,IC50,cells,18.4 µM (active)
